Measurements published in ChEMBL document CHEMBL1201862, “PubChem BioAssay data set” (2004).
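Assay format: 96-well plates, 48-hour exposure. GI50 marks 50% less growth.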 Active and inactive are the calls of the source. No stated cut-off is given here; in the data, active = GI50 up to about 1.1 µM and inactive = higher.

Experiments:
Experiment in all cases: growth of human tumour cells (NCI), 48 h
786-0 = test system: 786-0
ACHN = test system: ACHN
CCRF-CEM = test system: CCRF-CEM
COLO 205 = test system: COLO 205
DLD-1 = test system: DLD-1
DMS-114 = test system: DMS-114
DMS-273 = test system: DMS-273
HCC 2998 = test system: HCC 2998
HCT-15 = test system: HCT-15
HL-60 = test system: HL-60
HOP-18 = test system: HOP-18
HOP-62 = test system: HOP-62
HT-29 = test system: HT-29
K562 = test system: K562
KM-20L2 = test system: KM-20L2
KM12 = test system: KM12
LOX IMVI = test system: LOX IMVI
LXFL 529 = test system: LXFL 529
M14 = test system: M14
MOLT-4 = test system: MOLT-4
Malme-3M = test system: Malme-3M
NCI-H226 = test system: NCI-H226
NCI-H23 = test system: NCI-H23
NCI-H460 = test system: NCI-H460
NCI-H522 = test system: NCI-H522
OVCAR-5 = test system: OVCAR-5
OVCAR-8 = test system: OVCAR-8
RPMI-8226 = test system: RPMI-8226
SF-268 = test system: SF-268
SF-539 = test system: SF-539
SK-MEL-2 = test system: SK-MEL-2
SN12C = test system: SN12C
SR = test system: SR
TK-10 = test system: TK-10
U-251 = test system: U-251
UACC-257 = test system: UACC-257
UACC-62 = test system: UACC-62
UO-31 = test system: UO-31
XF498 = test system: XF498
A549 = test system: A549
CAKI-1 = test system: CAKI-1
EKVX = test system: EKVX
HCT-116 = test system: HCT-116
HOP-92 = test system: HOP-92
IGROV-1 = test system: IGROV-1
M19-MEL = test system: M19-MEL
OVCAR-3 = test system: OVCAR-3
OVCAR-4 = test system: OVCAR-4
RXF 393 = test system: RXF 393
SF-295 = test system: SF-295
SK-MEL-28 = test system: SK-MEL-28
SK-MEL-5 = test system: SK-MEL-5
SK-OV-3 = test system: SK-OV-3
SNB-75 = test system: SNB-75
SNB-78 = test system: SNB-78
SW-620 = test system: SW-620
A498 = test system: A498
SNB-19 = test system: SNB-19

Measured: GI50

COc1cc(C2c3cc4c(cc3[C@H](NS(C)(=O)=O)C3COC(=O)[C@H]23)OCO4)cc(OC)c1OC (some centres undefined)
0.448 µM: HCT-15
active: 786-0 0.471 µM | ACHN 0.51 µM | CCRF-CEM 0.444 µM | COLO 205 0.186 µM | DLD-1 0.592 µM | DMS-114 0.226 µM | DMS-273 0.297 µM | HCC 2998 0.435 µM | HL-60 0.253 µM | HOP-62 0.177 µM | HT-29 0.34 µM | K562 0.415 µM | KM-20L2 0.162 µM | KM12 0.108 µM | LOX IMVI 0.419 µM | LXFL 529 0.731 µM | M14 0.426 µM | MOLT-4 0.418 µM | NCI-H226 0.177 µM | NCI-H23 0.223 µM | NCI-H460 0.615 µM | NCI-H522 0.0671 µM | OVCAR-8 0.439 µM | RPMI-8226 0.394 µM | SF-268 0.778 µM | SF-539 0.165 µM | SN12C 0.482 µM | SR 0.251 µM | U-251 0.327 µM | UACC-257 0.612 µM | UACC-62 0.162 µM | XF498 0.56 µM
inactive: HOP-18 > 100 µM | Malme-3M > 100 µM | OVCAR-5 > 100 µM | SK-MEL-2 > 100 µM | TK-10 > 100 µM | UO-31 9.35 µM

CCOC(=O)CN(Cn1cncn1)Cn1cncn1
inactive: 786-0 58.6 µM | A549 40.6 µM | ACHN 36.6 µM | CAKI-1 56 µM | CCRF-CEM 47 µM | COLO 205 36.9 µM | DLD-1 34.9 µM | DMS-273 20.5 µM | EKVX 43.8 µM | HCC 2998 33.2 µM | HCT-116 30.8 µM | HL-60 35.7 µM | HOP-18 32.8 µM | HOP-62 > 100 µM | HOP-92 > 100 µM | HT-29 34.6 µM | IGROV-1 > 100 µM | K562 40.6 µM | KM-20L2 22.5 µM | KM12 20.2 µM | LOX IMVI 21 µM | LXFL 529 40.2 µM | M14 > 10 µM | M19-MEL 38.7 µM | MOLT-4 45.4 µM | Malme-3M 52 µM | NCI-H226 28.1 µM | NCI-H460 24.9 µM | OVCAR-3 19.6 µM | OVCAR-4 46.8 µM | OVCAR-5 > 100 µM | OVCAR-8 24.7 µM | RPMI-8226 55.2 µM | RXF 393 14.8 µM | SF-295 39.4 µM | SK-MEL-28 18.4 µM | SK-MEL-2 38.2 µM | SK-MEL-5 24.2 µM | SK-OV-3 > 100 µM | SN12C 29.4 µM | SNB-75 20.6 µM | SNB-78 91 µM | SW-620 24.1 µM | TK-10 50.7 µM | U-251 17.9 µM | UACC-257 17.6 µM | UACC-62 33.3 µM | UO-31 > 100 µM | XF498 20.4 µM
22 µM: HCT-15

C1CN2CCO[SiH](O1)OCC2
inactive: 786-0 > 100 µM | A498 > 100 µM | A549 > 100 µM | ACHN > 100 µM | CAKI-1 > 100 µM | CCRF-CEM > 100 µM | COLO 205 > 100 µM | DLD-1 > 100 µM | DMS-114 > 100 µM | DMS-273 > 100 µM | EKVX > 100 µM | HCC 2998 > 100 µM | HCT-116 > 100 µM | HL-60 > 100 µM | HOP-18 > 100 µM | HT-29 > 100 µM | IGROV-1 > 100 µM | K562 > 100 µM | KM-20L2 > 100 µM | KM12 > 100 µM | LXFL 529 > 100 µM | M19-MEL > 100 µM | MOLT-4 > 100 µM | Malme-3M > 100 µM | NCI-H226 > 100 µM | NCI-H23 > 100 µM | NCI-H460 > 100 µM | NCI-H522 > 100 µM | OVCAR-3 > 100 µM | OVCAR-8 > 100 µM | RPMI-8226 > 100 µM | RXF 393 > 100 µM | SF-268 > 100 µM | SF-295 > 100 µM | SF-539 > 100 µM | SK-MEL-28 > 100 µM | SK-MEL-2 > 100 µM | SK-MEL-5 > 100 µM | SK-OV-3 > 100 µM | SN12C > 100 µM | SNB-19 > 100 µM | SNB-75 > 100 µM | SNB-78 > 100 µM | SR > 100 µM | SW-620 > 100 µM | TK-10 > 100 µM | U-251 > 100 µM | UACC-257 > 100 µM | UACC-62 > 100 µM | UO-31 > 100 µM
